Experimental data published in patent US20240050428A1 (Cullgen (Shanghai), Inc., priority 2020, published 2024).
Read-outs that look alike come from different tables or passages of the source.

Tests used:
[1] = tested on: MV4;11 cells; assay: Cell viability assay (CellTiter-Glo) in MV4;11 cells, alone or with gilteritinib; assay type: cell-based; settings: Homo sapiens, read-out: MV4
[2] = tested on: MOLM-13 cells; assay: Cell viability assay (CellTiter-Glo) in MOLM-13 cells, alone or with gilteritinib; assay type: cell-based; settings: Homo sapiens
[3] = MV4-11, 72 h, MV4;11 cells, compound alone (without gilteritinib), three days, CellTiter-Glo, 11 IC50
[4] = MV4-11, 72 h, MV4;11 cells, with gilteritinib 10 nM, three days, CellTiter-Glo, 11 IC50 gilteritinib
[5] = MOLM-13, 72 h, MOLM-13 cells, compound alone (without gilteritinib), three days, CellTiter-Glo, read-out: MOLM-13 IC50
[6] = MOLM-13, 72 h, MOLM-13 cells, with gilteritinib 20 nM, three days, CellTiter-Glo, read-out: MOLM-13 IC50 gilteritinib
[7] = MV4-11, 72 h, MV4;11 cells, compound with gilteritinib 10 nM, three days, CellTiter-Glo, 11 IC50 gilteritinib
[8] = MOLM-13, 72 h, MOLM-13 cells, compound with gilteritinib 20 nM, three days, CellTiter-Glo, read-out: MOLM-13 IC50 gilteritinib
[9] = MV4-11, 72 h, MV4;11 cells, with 10 nM gilteritinib, 3 days, CellTiter-Glo, 11 IC50 gilteritinib
[10] = MV4-11, 72 h, MV4;11 cells, without gilteritinib, 3 days, CellTiter-Glo, 11 IC50
[11] = MOLM-13, 72 h, MOLM-13 cells, with 20 nM gilteritinib, 3 days, CellTiter-Glo, read-out: MOLM-13 IC50 gilteritinib
[12] = MOLM-13, 72 h, MOLM-13 cells, without gilteritinib, 3 days, CellTiter-Glo, read-out: MOLM-13 IC50
[13] = 72 h, MV4;11 cells, compound alone (without gilteritinib), three days, CellTiter-Glo, 11 IC50
[14] = 72 h, MV4;11 cells, with gilteritinib 10 nM, three days, CellTiter-Glo, 11 IC50 gilteritinib
[15] = 72 h, MOLM-13 cells, compound alone (without gilteritinib), three days, CellTiter-Glo, read-out: MOLM-13 IC50
[16] = 72 h, MOLM-13 cells, with gilteritinib 20 nM, three days, CellTiter-Glo, read-out: MOLM-13 IC50 gilteritinib

| Structure (SMILES) | IC50 [1, 3] [µM] | IC50 [1, 4] [µM] | IC50 [2, 5] [µM] | IC50 [2, 6] [µM] | further results |
| --- | --- | --- | --- | --- | --- |
| O=C1CCC(N2C(=O)c3ccc(NCCC[C@H]4C[C@H](n5cc(-c6cccc(N7CCOCC7)n6)cn5)C4)cc3C2=O)C(=O)N1 (stereo partly drawn) [GS-217, 2-(2,6-Dioxopiperidin-3-yl)-5-((3-(trans-3-(4-(6-morpholinopyridin-2-yl)-1H-pyrazol-1-yl)cyclobutyl)propyl)amino)isoindoline-1,3-dione] | 0.01 to 0.1 | < 0.01 | 0.1 to 1 | < 0.01 |  |
| O=C1CCC(N2C(=O)c3ccc(NC[C@H]4C[C@H](n5cc(-c6nccc7[nH]ncc67)c(C6CC6)n5)C4)cc3C2=O)C(=O)N1 (stereo partly drawn) [GS-299, 5-(((trans-3-(3-Cyclopropyl-4-(1H-pyrazolo[4,3-c]pyridin-4-yl)-1H-pyrazol-1-yl)cyclobutyl)methyl)amino)-2-(2,6-dioxopiperidin-3-yl)isoindoline-1,3-dione] | < 0.01 | < 0.01 | 0.01 to 0.1 | < 0.01 |  |
| O=C1CCC(N2C(=O)c3ccc(NCCCCCC(=O)N4CCC(N5CCC(c6cnc7ccccc7n6)C5)CC4)cc3C2=O)C(=O)N1 (stereo not shown) [GS-015, 2-(2,6-Dioxopiperidin-3-yl)-5-((6-oxo-6-(4-(3-(quinoxalin-2-yl)pyrrolidin-1-yl)piperidin-1-yl)hexyl)amino)isoindoline-1,3-dione] |  |  |  |  | IC50 [1, 9]: 2.78 µM; IC50 [1, 10]: > 10 µM; IC50 [2, 11]: 0.03 µM; IC50 [2, 12]: > 10 µM |
| O=C1CCC(N2C(=O)c3ccc(NCCC[C@H]4C[C@H](n5cc(-c6cccc(N7CCOCC7)n6)c(C6CC6)n5)C4)cc3C2=O)C(=O)N1 (stereo partly drawn) [GS-246, 5-((3-(trans-3-(3-Cyclopropyl-4-(6-morpholinopyridin-2-yl)-1H-pyrazol-1-yl)cyclobutyl)propyl)amino)-2-(2,6-dioxopiperidin-3-yl)isoindoline-1,3-dione] | 0.1 to 1 | 0.01 to 0.1 | > 1 | 0.1 to 1 |  |
| O=C1CCC(N2C(=O)c3ccc(NCCC[C@H]4C[C@H](n5cc(-c6cnc7c(C8CNC8)cccc7n6)cn5)C4)cc3C2=O)C(=O)N1 (stereo partly drawn) [GS-250, 5-((3-(trans-3-(4-(5-(Azetidin-3-yl)quinoxalin-2-yl)-1H-pyrazol-1-yl)cyclobutyl)propyl)amino)-2-(2,6-dioxopiperidin-3-yl)isoindoline-1,3-dione] | 0.1 to 1 | 0.01 to 0.1 | 0.1 to 1 | 0.01 to 0.1 |  |
| O=C1CCC(N2C(=O)c3ccc(NCCC[C@H]4C[C@H](n5cc(-c6cccc(N7CCOCC7)c6)cn5)C4)cc3C2=O)C(=O)N1 (stereo partly drawn) [GS-241, 2-(2,6-Dioxopiperidin-3-yl)-5-((3-(trans-3-(4-(3-morpholinophenyl)-1H-pyrazol-1-yl)cyclobutyl)propyl)amino)isoindoline-1,3-dione] | 0.1 to 1 | 0.1 to 1 | > 1 | 0.1 to 1 |  |
| O=C1CCC(N2Cc3ccc(CCCCCC(=O)N4CCC(c5ccccc5)CC4)cc3C2=O)C(=O)N1 (stereo not shown) [GS-095, 3-(1-Oxo-6-(6-oxo-6-(4-phenylpiperidin-1-yl)hexyl)isoindolin-2-yl)piperidine-2,6-dione] |  |  |  |  | IC50 [1, 13]: 0.1 to 1 µM; IC50 [1, 14]: 0.01 to 0.1 µM; IC50 [2, 15]: 0.1 to 1 µM; IC50 [2, 16]: 0.01 to 0.1 µM |
| O=C1CCC(N2C(=O)c3ccc(NCCCCCC(=O)N4CCC(N5CCCCC5)CC4)cc3C2=O)C(=O)N1 (stereo not shown) [GS-012, 5-((6-([1,4′-Bipiperidin]-1′-yl)-6-oxohexyl)amino)-2-(2,6-dioxopiperidin-3-yl)isoindoline-1,3-dione] |  |  |  |  | IC50 [1, 9]: > 10 µM; IC50 [1, 10]: > 10 µM; IC50 [2, 11]: 0.312 µM; IC50 [2, 12]: > 10 µM |
| O=C1CCC(N2C(=O)c3ccc(NCCCC(=O)N4CCN(c5ccccc5)CC4)cc3C2=O)C(=O)N1 (stereo not shown) [GS-319, 2-(2,6-Dioxopiperidin-3-yl)-5-((4-oxo-4-(4-phenylpiperazin-1-yl)butyl)amino)isoindoline-1,3-dione] |  |  |  |  | IC50 [1, 13]: > 1 µM; IC50 [1, 14]: > 1 µM; IC50 [2, 15]: > 1 µM; IC50 [2, 16]: 0.01 to 0.1 µM |
| O=C1CCC(N2C(=O)c3ccc(NCCNc4cccc(-n5cc(-c6cnc7cccc(Br)c7n6)cn5)c4)cc3C2=O)C(=O)N1 (stereo not shown) [GS-357, 5-((2-((3-(4-(8-Bromoquinoxalin-2-yl)-1H-pyrazol-1-yl)phenyl)amino)ethyl)amino)-2-(2,6-dioxopiperidin-3-yl)isoindoline-1,3-dione] |  |  |  |  | IC50 [1, 13]: 0.01 to 0.1 µM; IC50 [1, 14]: 0.01 to 0.1 µM; IC50 [2, 15]: 0.01 to 0.1 µM; IC50 [2, 16]: 0.01 to 0.1 µM |
| O=C1CCC(N2C(=O)c3ccc(NCCC[C@H]4C[C@H](n5cc(-c6cnc7ccc(NC8CCNCC8)cc7n6)cn5)C4)cc3C2=O)C(=O)N1 (stereo partly drawn) [GS-196, 2-(2,6-Dioxopiperidin-3-yl)-5-((3-(trans-3-(4-(7-(piperidin-4-ylamino)quinoxalin-2-yl)-1H-pyrazol-1-yl)cyclobutyl)propyl)amino)isoindoline-1,3-dione] | 0.01 to 0.1 | < 0.01 | 0.01 to 0.1 | < 0.01 |  |
| O=C1CCC(N2C(=O)c3ccc(NCCCCCC(=O)N4CCC(c5ccccc5)CC4)cc3C2=O)C(=O)N1 (stereo not shown) [GS-010, 2-(2,6-Dioxopiperidin-3-yl)-5-((6-oxo-6-(4-phenylpiperidin-1-yl)hexyl)amino)isoindoline-1,3-dione] |  |  |  |  | IC50 ([1]; MV4-11, 72 h, 11 IC50): 0.017 µM; IC50 ([1]; MV4-11, 72 h, 11 IC50 gilteritinib): 0.0023 µM; IC50 ([2]; MOLM-13, 72 h, read-out: MOLM-13 IC50): 0.003 µM; IC50 ([2]; MOLM-13, 72 h, read-out: MOLM-13 IC50 gilteritinib): 0.0003 µM |

Second part, led by results:

| IC50 [1, 3] [µM] | IC50 [1, 4] [µM] | IC50 [2, 5] [µM] | IC50 [2, 6] [µM] | Structure (SMILES) | further results |
| --- | --- | --- | --- | --- | --- |
| > 1 |  | > 1 |  | Cc1cccc(-c2cnn([C@H]3C[C@H](CNc4ccc5c(c4)C(=O)N(C4CCC(=O)NC4=O)C5=O)C3)c2)n1 (stereo partly drawn) [GS-578, 2-(2,6-Dioxopiperidin-3-yl)-5-(((trans-3-(4-(6-methylpyridin-2-yl)-1H-pyrazol-1-yl)cyclobutyl)methyl)amino)isoindoline-1,3-dione] | IC50 [1, 7]: 0.1 to 1 µM; IC50 [2, 8]: 0.1 to 1 µM |
| 0.1 to 1 |  | 0.1 to 1 |  | O=C1CCC(N2C(=O)c3ccc(NC[C@H]4C[C@H](n5cc(-c6ncccn6)c(C6CC6)n5)C4)cc3C2=O)C(=O)N1 (stereo partly drawn) [GS-599, 5-(((trans-3-(3-Cyclopropyl-4-(pyrimidin-2-yl)-1H-pyrazol-1-yl)cyclobutyl)methyl)amino)-2-(2,6-dioxopiperidin-3-yl)isoindoline-1,3-dione] | IC50 [1, 7]: 0.01 to 0.1 µM; IC50 [2, 8]: 0.1 to 1 µM |
| 0.1 to 1 |  | 0.1 to 1 |  | O=C1CCC(N2C(=O)c3ccc(NCCCCCCn4cc(-c5cnc6ccccc6n5)c(C5CC5)n4)cc3C2=O)C(=O)N1 (stereo not shown) [GS-552, 5-((6-(3-Cyclopropyl-4-(quinoxalin-2-yl)-1H-pyrazol-1-yl)hexyl)amino)-2-(2,6-dioxopiperidin-3-yl)isoindoline-1,3-dione] | IC50 [1, 7]: 0.01 to 0.1 µM; IC50 [2, 8]: < 0.01 µM |
| > 1 | 0.1 to 1 | > 1 | 0.1 to 1 | O=C1CCC(N2C(=O)c3ccc(NC(=O)CCCCC(=O)N4CCC(n5cc(-c6cnc7ccccc7n6)cn5)CC4)cc3C2=O)C(=O)N1 (stereo not shown) [GS-325, N-(2-(2,6-Dioxopiperidin-3-yl)-1,3-dioxoisoindolin-5-yl)-6-oxo-6-(4-(4-(quinoxalin-2-yl)-1H-pyrazol-1-yl)piperidin-1-yl)hexanamide] |  |
| > 1 | > 1 | > 1 | > 1 | O=C1CCC(N2C(=O)c3ccc(NC(=O)COCCC(=O)N4CCC(n5cc(-c6cnc7ccccc7n6)cn5)CC4)cc3C2=O)C(=O)N1 (stereo not shown) [GS-330, N-(2-(2,6-Dioxopiperidin-3-yl)-1,3-dioxoisoindolin-5-yl)-2-(3-oxo-3-(4-(4-(quinoxalin-2-yl)-1H-pyrazol-1-yl)piperidin-1-yl)propoxy)acetamide] |  |
| 0.1 to 1 |  | 0.1 to 1 |  | O=C1CCC(N2C(=O)c3ccc(NCCCCCCn4cc(-c5cnc6cccc(C(F)(F)F)c6n5)cn4)cc3C2=O)C(=O)N1 (stereo not shown) [GS-555, 2-(2,6-Dioxopiperidin-3-yl)-5-((6-(4-(8-(trifluoromethyl)quinoxalin-2-yl)-1H-pyrazol-1-yl)hexyl)amino)isoindoline-1,3-dione] | IC50 [1, 7]: 0.01 to 0.1 µM; IC50 [2, 8]: < 0.01 µM |
| > 1 |  | > 1 |  | O=C1CCC(N2C(=O)c3ccc(NC[C@H]4C[C@H](n5cc(-c6cc(N7CCNCC7)ccn6)c(C6CC6)n5)C4)cc3C2=O)C(=O)N1 (stereo partly drawn) [GS-607, 5-(((trans-3-(3-Cyclopropyl-4-(4-(piperazin-1-yl)pyridin-2-yl)-1H-pyrazol-1-yl)cyclobutyl)methyl)amino)-2-(2,6-dioxopiperidin-3-yl)isoindoline-1,3-dione] | IC50 [1, 7]: > 1 µM; IC50 [2, 8]: > 1 µM |
